# Patent publication US20120220577A1, “GLYCINE B ANTAGONISTS” (Merz Pharma GmbH & Co KgaA, priority 2009, published 2012)
# Molecular target: T1, glycine binding pocket of the NMDA receptor (Rattus norvegicus, UniProt P35439)
# T1 construct: For isolation of the cell membranes, the cortices are homogenized; from tissue; host or cells: rat cerebral cortex membranes (male Sprague-Dawley)
# Test: [3H]MDL-105,519 displacement studies (rat cortical membranes)
# Details: displacement of 2 nM [3H]-MDL-105,519, rat cortical membranes; read-out: NMDA-MDL 105519-r-CTX - IC50
# Protocol: Anaesthetised male Sprague-Dawley rats (200-250 g, Janvier, Le Genest-Isle, France) are decapitated and their brains removed rapidly. […] For isolation of the cell membranes, the cortices are homogenized in 20 volumes of ice-cold 0.32 M sucrose (Sigma-Aldrich, Taufkirchen, Germany) using a glass-Teflon homogenizer. The homogenate is centrifuged at 1000×g for 10 minutes, the pellet is discarded and the supernatant centrifuged at 20,000×g for 20 minutes. The resulting pellet is re-suspended in 20 volumes of distilled water and centrifuged for 20 minutes at 8000×g. The supernatant and the buffy coat are then centrifuged three times (48,000×g for 20 minutes) in the presence of 50 mM Tris-HCl, pH 8.0 (assay buffer). All centrifugation steps are carried out at 4° C. After resuspension in 5 volumes of 50 mM Tris-HCl, pH 7.5, the membrane suspension is frozen rapidly at −80° C. On the day of assay, the membranes are thawed and washed four times by resuspension in 50 mM Tris-HCl, pH 7.5, and centrifugation at 48,000×g for 20 minutes. The final pellet is suspended in assay buffer. […] The final protein concentration used for our studies is 400 μg/ml.
# A robotic system designed for binding assays (Tecan Deutschland GmbH, Crailsheim, Germany) is loaded with the membrane solution, solutions for bound control (buffer/DMSO 20%), unlabeled glycine (1 mM) for evaluation of non-specific binding, all compounds to be tested (at 20-fold concentrations), radioligand and respective 96-well plates.
# The protein/receptor concentration is held constant whereas the amount of specific bound radioligand is determined using increasing concentrations of ligand.
# Firstly, the assay plates are loaded with membrane solution and are shaken at 4° C. The mother plates are then prepared by pipetting the compounds into assay buffer/20% DMSO to obtain the desired final concentrations (dose response curve with five different concentrations, e.g. 10, 3, 1, 0.3, and 0.1 μM). After transferring radioligand into the assay plates, the compounds are added (including the bound and the non-specific binding control). The final DMSO concentration is 1%. The assay plates are incubated and shaken at 4° C. for 1 h, before the mixture is exhausted as rapidly as possible via a vacuum manifold using the Multiscreen HTS glass fibre (type B) filter plates (Millipore, Schwalbach, Germany) under a constant vacuum of 450 mbar. The membranes are washed four times with cold assay buffer ([…]). 50 μL of Ultima Gold scintillation cocktail (PerkinElmer, Rodgau-Jügesheim, Germany) is added to the wet filter plates and incubated at room temperature overnight before counting the disintegration per minutes using a liquid scintillation counter (MicroBeta, PerkinElmer, Rodgau-Jügesheim, Germany).
# The residual radioactivity after displacement of the test compound (n=5) is then corrected with respect to the set controls.
row,Compound,IC50 [nM]
1,"O=C(COc1cc(C(=O)O)cc2cc(Cl)cc(Cl)c12)N[C@@H]1C[C@H]1c1ccccc1 (relative stereo) [Example 66, 5,7-Dichloro-4-[(trans-2-phenyl-cyclopropylcarbamoyl)-methoxy]-naphthalene-2-carboxylic acid]",935
2,"COc1ccc(C(=O)COc2cc(C(=O)O)cc3cc(Cl)cc(Cl)c23)cc1 [Example 4, 5,7-Dichloro-4-[2-(4-methoxyphenyl)-2-oxo-ethoxy]-naphthalene-2-carboxylic acid]",6740
3,"COc1cccc(NC(=O)COc2cc(C(=O)O)cc3cc(Cl)cc(Cl)c23)c1 [Example 6, 5,7-Dichloro-4-[(3-methoxyphenylcarbamoyl)-methoxy]-naphthalene-2-carboxylic acid]",1790
4,"O=C(COc1cc(C(=O)O)cc2cc(Cl)cc(Cl)c12)Nc1ccc(CO)cc1 [Example 9, 5,7-Dichloro-4-[(4-hydroxymethyl-phenylcarbamoyl)-methoxy]-naphthalene-2-carboxylic acid]",404
5,"O=C(COc1cc(C(=O)O)cc2cc(Cl)cc(Cl)c12)Nc1cccc(CO)c1 [Example 10, 5,7-Dichloro-4-[(3-hydroxymethylphenylcarbamoyl)-methoxy]-naphthalene-2-carboxylic acid]",351
6,O=C(COc1cc(C(=O)O)cc2cc(Cl)cc(Cl)c12)N[C@@H](CO)c1ccccc1 [Example 29],983
7,"O=C(COc1cc(C(=O)O)cc2cc(Cl)cc(Cl)c12)Nc1ccccc1 [Example 33, 5,7-Dichloro-4-phenylcarbamoylmethoxynaphthalene-2-carboxylic acid]",769
8,"O=C(O)c1cc(OCC(=O)N2CCCC2C(=O)O)c2c(Cl)cc(Cl)cc2c1 (stereo not drawn) [Example 35, 1-[2-(3-Carboxy-6,8-dichloronaphthalen-1-yloxy)-acetyl]-pyrrolidine-2-carboxylic acid]",1420
9,"O=C(O)CC(Cc1ccccc1)NC(=O)COc1cc(C(=O)O)cc2cc(Cl)cc(Cl)c12 (stereo not drawn) [Example 37, 4-[(1-Carboxymethyl-2-phenylethylcarbamoyl)-methoxy]-5,7-dichloronaphthalene-2-carboxylic acid]",4780
10,"CN(C(=O)COc1cc(C(=O)O)cc2cc(Cl)cc(Cl)c12)c1cccc(CC(=O)O)c1 [Example 40, 4-{[(3-Carboxymethylphenyl)-methyl-carbamoyl]-methoxy}-5,7-dichloronaphthalene-2-carboxylic acid]",3580
11,"O=C(O)c1cc(OCC(=O)N2CC(C(=O)O)Oc3ccccc32)c2c(Cl)cc(Cl)cc2c1 (stereo not drawn) [Example 43, 4-[2-(3-Carboxy-6,8-dichloronaphthalen-1-yloxy)-acetyl]-3,4-dihydro-2H-benzo[1,4]oxazine-2-carboxylic acid]",3070
12,"O=C(O)COc1ccc(NC(=O)COc2cc(C(=O)O)cc3cc(Cl)cc(Cl)c23)cc1 [Example 44, 4-[(4-Carboxymethoxy-phenylcarbamoyl)-methoxy]-5,7-dichloro-naphthalene-2-carboxylic acid]",3390
13,"COC(=O)c1ccccc1NC(=O)COc1cc(C(=O)O)cc2cc(Cl)cc(Cl)c12 [Example 45, 5,7-Dichloro-4-[(2-methoxycarbonyl-phenylcarbamoyl)-methoxy]-naphthalene-2-carboxylic acid]",4270
14,"O=C(COc1cc(C(=O)O)cc2cc(Cl)cc(Cl)c12)NCc1ccccc1OC(F)(F)F [Example 61, 5,7-Dichloro-4-[(2-trifluoromethoxy-benzylcarbamoyl)-methoxy]-naphthalene-2-carboxylic acid]",1560
15,"COc1cccc(CO)c1NC(=O)COc1cc(C(=O)O)cc2cc(Cl)cc(Cl)c12 [Example 76, 5,7-Dichloro-4-[(2-hydroxymethyl-6-methoxy-phenylcarbamoyl)-methoxy]-naphthalene-2-carboxylic acid]",1220
16,"CN(C)CCOc1ccc(NC(=O)COc2cc(C(=O)O)cc3cc(Cl)cc(Cl)c23)cc1CO [Example 87, 5,7-Dichloro-4-{[4-(2-dimethylamino-ethoxy)-3-hydroxymethyl-phenylcarbamoyl]-methoxy}-naphthalene-2-carboxylic acid]",324
17,"O=C(COc1cc(C(=O)O)cc2cc(Cl)cc(Cl)c12)Nc1ccc(-c2nnn[nH]2)cc1 [Example 89, 5,7-Dichloro-4-{[4-(1H-tetrazol-5-yl)-phenylcarbamoyl]-methoxy}-naphthalene-2-carboxylic acid]",1260
18,"NC(=O)COc1cccc(NC(=O)COc2cc(C(=O)O)cc3cc(Cl)cc(Cl)c23)c1 [Example 93, 4-[(3-Carbamoylmethoxy-phenylcarbamoyl)-methoxy]-5,7-dichloro-naphthalene-2-carboxylic acid]",520
19,"N#Cc1cccc(NC(=O)COc2cc(C(=O)O)cc3cc(Cl)cc(Cl)c23)c1 [Example 98, 5,7-Dichloro-4-[(3-cyano-phenylcarbamoyl)-methoxy]-naphthalene-2-carboxylic acid]",1120
20,"CN(C)C(=O)COc1ccccc1NC(=O)COc1cc(C(=O)O)cc2cc(Cl)cc(Cl)c12 [Example 102, 5,7-Dichloro-4-[(2-dimethylcarbamoylmethoxy-phenylcarbamoyl)-methoxy]-naphthalene-2-carboxylic acid]",134
21,"CN(C)CCNC(=O)COc1ccccc1NC(=O)COc1cc(C(=O)O)cc2cc(Cl)cc(Cl)c12 [Example 109, 5,7-Dichloro-4-({2-[(2-dimethylamino-ethylcarbamoyl)-methoxy]-phenylcarbamoyl}-methoxy)-naphthalene-2-carboxylic acid]",650
22,"CN(C)CCN(C)C(=O)COc1ccccc1NC(=O)COc1cc(C(=O)O)cc2cc(Cl)cc(Cl)c12 [Example 110, 5,7-Dichloro-4-[(2-{[(2-dimethylamino-ethyl)-methyl-carbamoyl]-methoxy}-phenylcarbamoyl)-methoxy]-napthalene-2-carboxylic acid]",1310
23,"CNCc1ccc(NC(=O)COc2cc(C(=O)O)cc3cc(Cl)cc(Cl)c23)c(OCC(=O)O)c1 [Example 111, 4-[(2-Carboxymethoxy-4-methylaminomethyl-phenylcarbamoyl)-methoxy]-5,7-dichloro-naphthalene-2-carboxylic acid]",24
24,"N#CCc1ccc(NC(=O)COc2cc(C(=O)O)cc3cc(Cl)cc(Cl)c23)cc1 [Example 112, 5,7-Dichloro-4-[(4-cyanomethyl-phenylcarbamoyl)-methoxy]-naphthalene-2-carboxylic acid]",637
25,"O=C(COc1cc(C(=O)O)cc2cc(Cl)cc(Cl)c12)Nc1cccc2cc(C(=O)O)oc12 [Example 115, 7-[2-(3-Carboxy-6,8-dichloro-naphthalen-1-yloxy)-acetylamino]-benzofuran-2-carboxylic acid]",7
26,"CNC(=O)COc1cc(CN)ccc1NC(=O)COc1cc(C(=O)O)cc2cc(Cl)cc(Cl)c12 [Example 116, 4-[(4-Aminomethyl-2-methylcarbamoylmethoxy-phenylcarbamoyl)-methoxy]-5,7-dichloro-naphthalene-2-carboxylic acid]",297
27,"N#Cc1ccc(CNC(=O)COc2cc(C(=O)O)cc3cc(Cl)cc(Cl)c23)cc1 [Example 117, 5,7-Dichloro-4-[(4-cyano-benzylcarbamoyl)-methoxy]-naphthalene-2-carboxylic acid]",1940
28,"CN(C)C(=O)COc1cc(CN)ccc1NC(=O)COc1cc(C(=O)O)cc2cc(Cl)cc(Cl)c12 [Example 123, 4-[(4-Aminomethyl-2-dimethylcarbamoylmethoxy-phenylcarbamoyl)-methoxy]-5,7-dichloronaphthalene-2-carboxylic acid]",113
29,"O=C(COc1cc(C(=O)O)cc2cc(Cl)cc(Cl)c12)Nc1cccc(CO)c1OCCO [Example 124, 5,7-Dichloro-4-{[2-(2-hydroxy-ethoxy)-3-hydroxymethyl-phenylcarbamoyl]-methoxy}-naphthalene-2-carboxylic acid]",428
30,"O=C(COc1cc(C(=O)O)cc2cc(Cl)cc(Cl)c12)NCc1ccccc1OCc1nnn[nH]1 [Example 125, 5,7-Dichloro-4-{[2-(1H-tetrazol-5-ylmethoxy)-benzylcarbamoyl]-methoxy}-naphthalene-2-carboxylic acid]",254
